“Also recorded” adds a separate entry of the source. Read-outs that look alike come from different tables or passages of the source.

For data set [1] the following is noted: cited from earlier work.
The conditions of data set [2]: Dahl salt-sensitive rats, high-salt diet, oral supplementation; cited from earlier work.
The conditions of data set [3]: mice, model of normal tension glaucoma; cited from earlier work.
For data set [4] the following is noted: mice, spermidine supplementation; cited from earlier work.
The conditions of data set [5]: mice on a high fat diet; cited from earlier work.
The test system of a further data set is Drosophila. The following applies: cited from earlier work.
The test system of data set [6] is polyamine and acetyl coenzyme A metabolism. The data set can be described thus: Metabolomics analysis of tissues (polyamines, acetyl CoA, TETA metabolites). The data set is classed as in vivo, mouse. As to conditions: for Acetyl coenzyme A (CoA) levels: liver (FIG. 7C); for Acetyl coenzyme A (CoA) levels / Ratio of N1-acetylspermidine over spermidine (polyamine catabolism): mice upon HFD regimen; for Ratio of N1-acetylspermidine over spermidine (polyamine catabolism): liver, heart or muscle (FIG. 7B).
Description: Metabolomics analysis. All standard and reagents used were from Sigma Aldrich except Ammonium carbonate (VWR). For sample preparation, about 30 mg of tissues for each condition were first weighted and solubilized into 1.5 mL polypropylene microcentrifuge tubes with ceramic beads with 1 mL of cold lysate buffer (MeOH/Water/Chloroform, 9/1/1, −20° C.). They were then homogenized three times for 20 s at 5500 rpm using a Precellys 24 tissue homogenator (Bertin Technologies, Montigny-le-Bretonneux, France), followed by a centrifugation (10 min at 15000 g, 4° C.). […] The LC-MS dried extracts were solubilized with 450 μL of MilliQ water and aliquoted in 3 microcentrifuge tubes (100 μL) for each LC method and one microcentrifuge tube for safety. Aliquots for analysis were transferred in LC vials and injected into LC/MS or kept at −80° C. until injection. For sample preparation of polyamines, about 30 mg of tissues for each condition were first weighted and solubilized into 1.5 mL polypropylene microcentrifuge tubes, with 1 mL of cold lysate buffer with 1% sulfosalicylic acid (MeOH /water 1% SSA, 9/1, −20° C.). They were then homogenized three times for 20 s at 5500 rpm using Precellys 24 tissue homogenator (Bertin Technologies, Montigny-le-Bretonneux, France), followed by a centrifugation (10 min at 15000 g, 4° C.). 600 μL of the upper phase of the supernatant was collected and evaporated in microcentrifuge tubes at 40° C. in a pneumatically assisted concentrator (Techne DB3, Staffordshire, UK). The LC-MS dried extracts were solubilized with 300 μL of MilliQ water, centrifugated (10 min at 15000 g, 4° C.), and 50 μL were transferred in polypropylene vial injection for LC method and the rest was transferred in microcentrifuge tube for safety. Aliquots transferred in polypropylene vials were injected into LC/MS or kept at −80° C. until injection. Targeted analysis of CoAs and nucleoside phosphates by ion pairing ultrahigh performance liquid chromatography (UHPLC) coupled to a Triple Quadrupole (QQQ) mass spectrometer was performed on a RRLC 1260 system (Agilent Technologies, Waldbronn, Germany) coupled to a Triple Quadrupole 6410 (Agilent Technologies) equipped with an electrospray source operating in positive mode. The gas temperature was set to 350° C. with a gas flow of 12 L/min. The capillary voltage was set to 3.5 kV.
10 μL of sample were injected on a Column XDB-C18 (100 mm×2.1 mm particle size 1.8 μm) from Agilent technologies, protected by a guard column XDB-C18 (5 mm×2.1 mm particle size 1.8 μm) and heated at 40° C. by a pelletier oven.
The gradient mobile phase consisted of water with 2 mM of DBAA (A) and acetonitrile (B). The flow rate was set to 0.2 mL/min, and gradient as follow: initial condition was 90% phase A and 10% phase B, maintained during 4 min. Molecules were then eluted using a gradient from 10% to 95% phase B over 3 min.

For data set [7] the following is noted: in vivo; cited from earlier work.
Data set [8] deals with invertebrate model organisms. As to conditions: spermidine supplementation; cited from earlier work.
For data set [9] the following is noted: mice; cited from earlier work.
For data set [10] the following is noted: old mice; cited from earlier work.
The conditions of data set [11]: old mice; cited from earlier work. This is another data set of the same source.
The conditions of data set [12]: ApoE-/- mice fed a high-fat diet for 20 weeks; cited from earlier work.
For data set [13] the following is noted: patients, long-term (decades) administration; cited from earlier work.
The subject of data set [14] is autophagy (LC3-I to LC3-II conversion, p62/SQSTM1 degradation). The following applies: oral administration (not shown). The procedure:
Tissue processing for Immunoblotting. […] Tissue extracts were then centrifuged at 12,000 g at 4° C. and supernatants were collected. Protein concentration in the supernatants was evaluated by the bicinchoninic acid technique (#23225, BCA protein assay kit). Protein extracts were run on 4-12% Bis-Tris acrylamide gels (# NP0322, Thermo Fisher Scientific) and electrotransferred to […] polyvinylidene fluoride (PVDF) membranes (#1620177,Bio-Rad). […] Equal protein loading was monitored by probing membranes with a glyceraldeyde-3-phosphate dehydrogenase (GAPDH)-specific antibody (#2118, Cell Signaling Technology). Membranes were developed with suitable horseradish peroxidase conjugates followed by chemiluminescence-based detection with the Amersham ECL Prime (# RPN2232, GE Healthcare and the ImageQuant LAS 4000 software-assisted imager (GE Healthcare, Piscataway, N.J., USA). Quantification was performed by densitometry by means of Image J software. Autophagy was quantified through evaluation of LC3-II/GAPDH ratio and SQSTM1/GAPDH ratio in accordance to guidelines.

For data set [15] the following is noted: HFD mice, TETA 8 weeks. The protocol:
Plasma cytokine measurements. Plasma was harvested from blood collection tubes by centrifugation at 15,000 rpm for 30 min, and stored at −80° C. Cytokines and levels were measured using a mouse serum adipokine immunoassay kit according to the protocol provided by the manufacturer (Cat. # MMHMAG-44K, EMD Millipore, Temecula, Calif., USA).

The text on data set [16]: Mouse experiments Six-to 7-week-old male WT C57Bl/6 were obtained from Envigo, France. Mice were maintained in specific pathogen-free conditions in a temperature-controlled environment with 12-hr light/12-hr dark cycles and received food and water ad libitum. Animal experiments were in compliance with the EU Directive 63/2010 and protocols 2012_069 and APAFIS #5272-2016042112271931v2 were approved by Ethical Committee of the Gustave Roussy Campus and Cordeliers Research Centre respectively. For weight gain experiments, mice were fed high fat diet (#260HF, Safe, France) or were given 30% sucrose solution in tap water.

The subject of data set [17] is N-e-acetylated Lysine residues of proteins. The data set can be described thus: Quantitative analysis of protein acetylation in tissues (immunofluorescence). As to conditions: mice.
For data set [18] the following is noted: chronic TETA. The protocol:
Glucose and Insulin Tolerance Test. For glucose tolerance test (GTT) mice were fasted O/N for 16 hours. 2.5 g/kg/BW glucose solution in PBS was injected intraperitoneally and blood glucose levels was measured by means of glucometer in tail vein blood. Tail snipping was used to obtain blood. Before snips, the tail end was dipped into Bupivicaine (0.25%) for local anesthesia. For the insulin tolerance test (ITT), mice were starved for 4 hours and a solution of 0.75 U/kg/BW insulin was injected intraperitoneally. Blood glucose is measured at 30, 60, and 120 minutes after glucose or insulin injection.

Where [19] appears, read: mice with excessive weight gain, chronic TETA (not shown).
[20] abbreviates: mice with excessive weight gain (HFD, sucrose, ob/ob).

Take `NCCCCNCCCN` [Spermidine, spermidine]: in data set [1] (aging mice, chronic administration), the Cardiac aging entry is “protects from cardiac aging”. Further, the “Diastolic function, left ventricular elasticity, and mitochondrial function” value in data set [1] (old mice) is on record as “improves”. For the same compound, in [2], the Blood pressure entry is recorded as “reduced high blood pressure” and the “Transition to heart failure” value is recorded as “delayed the transition to heart failure”. For the same compound, the Retinal degeneration entry in [3] was “blunts retinal degeneration”. Besides, in data set [4], the Longevity entry is “extends the longevity”. Further, in [5], the Glucose tolerance result is recorded as “improved”, the Insulin sensitivity entry is reported as “improved” and the Weight gain result is “reduced weigh gain”. In the data set with Drosophila, the Age-induced memory impairment result is “protects from age-induced memory impairment” and the “Loss of locomotor activity” value is “protects from”. The N1-acetylspermidine levels result in data set [6] (liver (FIG. 7A) and all mouse organs (data not shown)) is “increase in N1-acetylspermidine levels”. Further, in [6], the “Acetyl coenzyme A (CoA) levels” value is reported as “acetyl coenzyme A (AcCoA) depletion” and the “Ratio of N1-acetylspermidine over spermidine (polyamine catabolism)” value is given as “promote polyamine catabolism”. Also, in [6] (listed as spermidine), the “Acetyl coenzyme A (CoA) levels” value was “reduced acetyl coenzyme A (CoA) levels” and the “Ratio of N1-acetylspermidine over spermidine (polyamine catabolism)” value is listed as “increased the ratio”. In data set [6] (mice, after spermidine administration), the “Spermidine level in organs” value is recorded as “increase of this polyamine in most organs except plasma”. For the same compound, the Anticancer immune response result in [7] is on record as “enhance the anticancer immune response”. The Longevity entry in data set [8] is given as “extends the longevity”. The “Signs of pathology in experimental autoimmune encephalomyelitis” value in [9] is “attenuates signs of pathology”. For the same compound, the “Spatial learning and memory capabilities” value in data set [10] is “improves spatial learning and memory capabilities”. In addition, the Age-induced arterial stiffness result in [11] is “reversed age-induced arterial stiffness”. Also, the “Formation of atherosclerotic plaques” value in data set [12] is listed as “alleviated the formation of atherosclerotic plaques”.
As to `NCCNCCNCCN` [TETA, N,N′-Bis(2-aminoethyl)ethane-1,2-diamine], the Side effects entry in data set [13] is “side effects are mild”. For the same compound, the “Signs of autophagy in several mouse organs” value in data set [14] is listed as “induced signs of autophagy”. In addition, in [15], the “Plasma C-peptide” value is “prevented the HFD-induced elevation”, the “Plasma IGFBP1” value is listed as “prevented the HFD-induced elevation”, the Plasma adiponectin levels result is “increased the adiponectin levels” and the “Plasma gastric inhibitory peptide (GIP)” value is given as “prevented the HFD-induced elevation”. In data set [15], the Plasma insulin entry is recorded as “prevented the HFD-induced elevation”, the Plasma leptin result is reported as “prevented the HFD-induced elevation”, the “Plasma plasminogen activator inhibitor-1 (PAI-1)” value is listed as “prevented the HFD-induced elevation” and the Plasma resistin entry is recorded as “prevented the HFD-induced elevation”. Further, in data set [16] (setting [19]), the “Accumulation of intestinal and perigonadal adipose tissue” value is “reduced accumulation of intestinal and perigonadal adipose tissue”; the “Fat accumulation in the liver” value is given as “reduced fat accumulation in the liver”. Further, the Weight gain result in [16] (normal mice on a high-fat diet, TETA in drinking water) is “reduced the accelerated weight gain”. The Weight gain entry in data set [16] (normal mice on a high-sucrose diet (30% sucrose in drinking water), TETA per os 100 mg/kg) is listed as “reduced the accelerated weight gain”. In addition, the Weight gain result in [16] (ob/ob mice) is on record as “reduced the accelerated weight gain”. The Weight gain result in data set [16] (wild type mice on standard chow, TETA in drinking water or by gavage) is on record as “failed to affect the physiological weight gain”. In addition, in data set [17], the “Protein acetylation in heart (cardiomyocytes)” value was “reduces protein acetylation; also recorded: reduction in protein acetylation” and the “Protein acetylation in liver (hepatocytes)” value is listed as “reduces protein acetylation; also recorded: reduction in protein acetylation”. Also, in [18] (WT mice fed a normal diet), the Glucose tolerance test result was “had no effect” and the Insulin tolerance test entry is given as “had no effect”. Moreover, in data set [18] (setting [20]), the “Plasma glucose concentration after intraperitoneal glucose (GTT)” value is given as “reduced the plasma glucose concentration” and the “Transient decrease in glycemia after injection of insulin (ITT)” value is “enhanced the transient decrease in glycemia”.

The values above are taken from US20200360305A1 (INSERM (Institut National de la Ssnté et de la Researche …, priority 2017, published 2020).
